Article PMC2801429 (Journal of Alzheimer's disease : JAD, 2009)
“Also recorded” adds a separate entry of the source. Marks after values point to notes of the source that are not given here.

Experiments:
[1] = acute and single dose studies; cited from earlier work
[2] = Brain deposition of GSPE phenolic constituents; format: in vivo, Sprague Dawley rats; details: for Detection in brain tissue: rats; for Concentration in brain tissue: rats administered GSPE for 10 days (dose escalation, last dose 150 mg/kg BW), perfused brain, mean ± SEM
[3] = Plasma pharmacokinetics of GSPE phenolic constituents after intragastric gavage; format: in vivo, Sprague Dawley rats; details: for Increase of total (free plus methylated) C AUC0-8h: rats; for Detection in rat plasma: acute oral administration of GSPE; for AUC(0-8h) / Cmax / Tmax: rat plasma, mean ± SEM
[4] = humans; four week multiple dose administration; cited from earlier work
[5] = 10 day repeated GSPE pretreatment prior to pharmacokinetic dose
[6] = single acute GSPE dose (50, 100 or 150 mg/kg BW)
[7] = single intragastric gavage 50 mg GSE/kg BW
[8] = single intragastric gavage 100 mg GSE/kg BW
[9] = single intragastric gavage 150 mg GSE/kg BW

Compound	Bioavailability [1]	Detection in brain tissue [2, 5]	Concentration in brain tissue [2]	Detection in brain tissue [2, 6]	Increase of total (free plus methylated) C AUC0-8h ([3]; 50 to 100 mg/kg BW dose)	Increase of total (free plus methylated) C AUC0-8h ([3]; 100 to 150 mg/kg BW dose)	Detection in rat plasma [3]	AUC(0-8h) [3, 7]	Cmax [3, 7]	Tmax [3, 7]	AUC(0-8h) [3, 8]	Cmax [3, 8]	Tmax [3, 8]	AUC(0-8h) [3, 9]	Cmax [3, 9]	Tmax [3, 9]	Improvement of bioavailability by multiple dosing [4]
Oc1cc(O)c2c(c1)OC(c1ccc(O)c(O)c1)C(O)C2 (single isomer, unassigned; (+)) [C, (+)-catechin]	< 2 % of oral dose	detectable levels	576.7 ± 227.7 pg/g	not detectable	78%	106%	detected	398.5 ± 80.5 ^a ng/mL*h	207.5 ± 34.8 ^a ng/mL	1.7 ± 0.7 h	606.1 ± 64.6 ^a ng/mL*h	289.9 ± 37.2 ^a ng/mL	1.8 ± 0.2 h	1168.2 ± 143.6 ^b ng/mL*h	442.4 ± 49.1 ^b ng/mL	1.1 ± 0.2 h	–
COc1cc([C@H]2Oc3cc(O)cc(O)c3C[C@@H]2O)ccc1O [3′-OMeC, 3′-O-methylcatechin]	–	Trace but not quantifiable levels	–	–	–	–	–	44.1 ± 4.9 ^a ng/mL*h	22.7 ± 3.5 ^a ng/mL	1.0 ± 0.0 h	184.8 ± 45.3 ^a ng/mL*h	75.5 ± 14.0 ^b ng/mL	1.4 ± 0.2 h	465.1 ± 45.1 ^b ng/mL*h	129.3 ± 13.2 ^c ng/mL	1.3 ± 0.2 h	–
COc1cc([C@H]2Oc3cc(O)cc(O)c3C[C@H]2O)ccc1O [3′-OMeEC, 3′-O-methylepicatechin]	–	Trace but not quantifiable levels	–	–	–	–	–	60.5 ± 4.1 ^a ng/mL*h	36.8 ± 5.8 ^a ng/mL	1.0 ± 0.0 h	266.6 ± 61.4 ^b ng/mL*h	105.9 ± 22.0 ^a ng/mL	1.5 ± 0.2 h	639.5 ± 67.0 ^c ng/mL*h	167.7 ± 19.6 ^a ng/mL	1.3 ± 0.2 h	–
Oc1cc(O)c2c(c1)O[C@H](c1ccc(O)c(O)c1)[C@H](O)C2 [EC, (−)-epicatechin]	< 2 % of oral dose	detectable levels	290.7 ± 45.9 pg/g	not detectable	–	–	detected	–	–	–	–	–	–	–	–	–	–
O=C(O[C@@H]1Cc2c(O)cc(O)cc2O[C@@H]1c1cc(O)c(O)c(O)c1)c1cc(O)c(O)c(O)c1 [EGCG, epigallocatechin-gallate]	–	–	–	–	–	–	–	–	–	–	–	–	–	–	–	–	> 60%
O=C(O)c1cc(O)c(O)c(O)c1 [GA, Gallic acid]	< 2 % of oral dose	detectable levels; also recorded: trace levels	–	No detectable amounts	–	–	–	–	–	–	–	–	–	–	–	–	–
